{
  "source": "paper PMC8144059",
  "about": "(Drug metabolism and pharmacokinetics, 2021)",
  "target": "CYP3A4.1 (WT) (Homo sapiens, UniProt P08684)",
  "sequence (P08684 2-503)": "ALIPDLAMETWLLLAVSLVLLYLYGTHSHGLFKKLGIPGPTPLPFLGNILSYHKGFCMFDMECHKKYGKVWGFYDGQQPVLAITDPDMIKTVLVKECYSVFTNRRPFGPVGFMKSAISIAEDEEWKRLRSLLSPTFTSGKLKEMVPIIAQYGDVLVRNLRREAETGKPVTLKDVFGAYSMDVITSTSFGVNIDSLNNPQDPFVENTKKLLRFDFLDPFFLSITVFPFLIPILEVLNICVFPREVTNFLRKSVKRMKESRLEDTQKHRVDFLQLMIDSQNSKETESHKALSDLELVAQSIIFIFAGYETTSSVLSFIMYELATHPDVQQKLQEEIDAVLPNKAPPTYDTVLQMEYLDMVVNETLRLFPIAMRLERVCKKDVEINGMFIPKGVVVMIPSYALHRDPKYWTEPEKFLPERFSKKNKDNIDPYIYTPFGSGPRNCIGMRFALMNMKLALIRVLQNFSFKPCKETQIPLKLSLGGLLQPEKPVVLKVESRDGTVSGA",
  "settings": "Figure 2, CYP3A4.1, TST 10–500 μM, n=5",
  "data": [
    {"smiles": "OC(Cn1cncn1)(Cn1cncn1)c1ccc(F)cc1F", "note": "[FCZ, fluconazole]", "values": [
      {"measurement": "Inhibition of CYP3A4 activity (TST metabolism)", "result": "inhibited CYP3A4 activity in a concentration-dependent manner"}
    ]}
  ]
}
